Legend:
Type in all cases: functional
[1] = system: LOX IMVI; experiment: Cytotoxicity against Homo sapiens (human) LOXIMVI cells after 48 hr by SRB assay
[2] = system: NCI-H226; experiment: Cytotoxicity against Homo sapiens (human) NCI-H226 cells after 48 hr by SRB assay; conditions: NCI-H226, 48 h
[3] = Cytotoxicity against Homo sapiens (human) NCI-ADR-RES cells after 48 hr by SRB assay
[4] = system: SK-MEL-28; experiment: Cytotoxicity against Homo sapiens (human) SK-MEL-28 cells after 48 hr by SRB assay; conditions: SK-MEL-28, 48 h
[5] = system: EKVX; experiment: Cytotoxicity against Homo sapiens (human) EKVX cells after 48 hr by SRB assay
[6] = system: A549; experiment: Cytotoxicity against Homo sapiens (human) A549 cells after 48 hr by SRB assay; conditions: A549, 48 h
[7] = system: A498; experiment: Cytotoxicity against Homo sapiens (human) A498 cells after 48 hr by SRB assay; conditions: A498, 48 h
[8] = system: HT-29; experiment: Cytotoxicity against Homo sapiens (human) HT-29 cells after 48 hr by SRB assay; conditions: HT-29, 48 h
[9] = system: ACHN; experiment: Cytotoxicity against Homo sapiens (human) ACHN cells after 48 hr by SRB assay
[10] = system: SK-MEL-5; experiment: Cytotoxicity against Homo sapiens (human) SK-MEL-5 cells after 48 hr by SRB assay; conditions: SK-MEL-5, 48 h
[11] = system: SN12C; experiment: Cytotoxicity against Homo sapiens (human) SN12C cells after 48 hr by SRB assay
[12] = system: OVCAR-8; experiment: Cytotoxicity against Homo sapiens (human) OVCAR8 cells after 48 hr by SRB assay; conditions: OVCAR-8, 48 h
[13] = system: SNB-75; experiment: Cytotoxicity against Homo sapiens (human) SNB75 cells after 48 hr by SRB assay; conditions: SNB-75, 48 h
[14] = system: OVCAR-4; experiment: Cytotoxicity against Homo sapiens (human) OVCAR4 cells after 48 hr by SRB assay; conditions: OVCAR-4, 48 h
[15] = system: COLO 205; experiment: Cytotoxicity against Homo sapiens (human) COLO205 cells after 48 hr by SRB assay; conditions: COLO 205, 48 h
[16] = system: SK-MEL-2; experiment: Cytotoxicity against Homo sapiens (human) SK-MEL-2 cells after 48 hr by SRB assay; conditions: SK-MEL-2, 48 h
[17] = system: SR; experiment: Cytotoxicity against Homo sapiens (human) SR cells after 48 hr by SRB assay
[18] = system: MOLT-4; experiment: Cytotoxicity against Homo sapiens (human) MOLT4 cells after 48 hr by SRB assay; conditions: MOLT-4, 48 h
[19] = system: Hs-578T; experiment: Cytotoxicity against Homo sapiens (human) Hs 578T cells after 48 hr by SRB assay
[20] = system: M14; experiment: Cytotoxicity against Homo sapiens (human) M14 cells after 48 hr by SRB assay; conditions: M14, 48 h
[21] = system: T47D; experiment: Cytotoxicity against Homo sapiens (human) T47D cells after 48 hr by SRB assay
[22] = system: TK-10; experiment: Cytotoxicity against Homo sapiens (human) TK10 cells after 48 hr by SRB assay; conditions: TK-10, 48 h
[23] = system: Malme-3M; experiment: Cytotoxicity against Homo sapiens (human) MALME-3M cells after 48 hr by SRB assay
[24] = system: IGROV-1; experiment: Cytotoxicity against Homo sapiens (human) IGROV1 cells after 48 hr by SRB assay; conditions: IGROV-1, 48 h
[25] = system: OVCAR-3; experiment: Cytotoxicity against Homo sapiens (human) OVCAR3 cells after 48 hr by SRB assay; conditions: OVCAR-3, 48 h
[26] = system: K562; experiment: Cytotoxicity against Homo sapiens (human) K562 cells after 48 hr by SRB assay; conditions: K562, 48 h
[27] = system: OVCAR-5; experiment: Cytotoxicity against Homo sapiens (human) OVCAR5 cells after 48 hr by SRB assay; conditions: OVCAR-5, 48 h
[28] = system: UO-31; experiment: Cytotoxicity against Homo sapiens (human) UO31 cells after 48 hr by SRB assay; conditions: UO-31, 48 h
[29] = system: U-251; experiment: Cytotoxicity against Homo sapiens (human) U251 cells after 48 hr by SRB assay; conditions: U-251, 48 h
[30] = system: SW-620; experiment: Cytotoxicity against Homo sapiens (human) SW620 cells after 48 hr by SRB assay; conditions: SW-620, 48 h
[31] = system: UACC-62; experiment: Cytotoxicity against Homo sapiens (human) UACC62 cells after 48 hr by SRB assay; conditions: UACC-62, 48 h
[32] = system: UACC-257; experiment: Cytotoxicity against Homo sapiens (human) UACC257 cells after 48 hr by SRB assay; conditions: UACC-257, 48 h
[33] = system: RXF 393; experiment: Cytotoxicity against Homo sapiens (human) RXF393 cells after 48 hr by SRB assay; conditions: RXF 393, 48 h
[34] = system: DU-145; experiment: Cytotoxicity against Homo sapiens (human) DU145 cells after 48 hr by SRB assay; conditions: DU-145, 48 h
[35] = read-out: LC50 (the source's name)

With `Oc1c(-c2nnc(-c3ccc(Cl)cc3)o2)sc2nnc(-c3ccccc3)c(-c3ccccc3)c12` the GI50 [1] was 3.73 µM, the TGI [1] was 9.47 µM and the CC50 [1, 35] was 18.3 nM. The GI50 [2] was 3.06 µM, the TGI [2] was 18.3 µM and the CC50 [2, 35] was 18.3 nM. The GI50 [3] was 2580 nM, the TGI [3] was 18.3 µM and the GI50 [4] was 1140 nM. For the same compound, the TGI [4] was 18.3 µM, the CC50 [4, 35] was 18.3 nM and the GI50 [5] was 4.05 µM. It also gave a TGI [5] of 11.2 µM, a CC50 [5, 35] of 18.3 nM and a GI50 [6] of 4.65 µM. The TGI [6] was 14.8 µM, the CC50 [6, 35] was 18.3 nM and the GI50 [7] was 5.92 µM. It also gave a TGI [7] of 12.5 µM, a CC50 [7, 35] of 18.3 nM and a GI50 [8] of 4.56 µM. The TGI [8] was 9.1 µM, the CC50 [8, 35] was 18.3 nM and the GI50 [9] was 4.25 µM. It also gave a TGI [9] of 17.4 µM, a CC50 [9, 35] of 18.3 nM and a GI50 [10] of 5.41 µM. It also gave a TGI [10] of 9.1 µM, a CC50 [10, 35] of 13.6 nM and a GI50 [11] of 4.65 µM. The TGI [11] was 17.6 µM, the GI50 [12] was 4.38 µM and the TGI [12] was 18.3 µM. For the same compound, the CC50 [12, 35] was 18.3 nM, the GI50 [13] was 5.74 µM and the TGI [13] was 18.3 µM. For the same compound, the GI50 [14] was 4.75 µM, the TGI [14] was 18.3 µM and the CC50 [14, 35] was 18.3 nM. It also gave a GI50 [15] of 4.7 µM, a TGI [15] of 18.3 µM and a CC50 [15, 35] of 18.3 nM. For the same compound, the GI50 [16] was 4.13 µM, the TGI [16] was 8.23 µM and the GI50 [17] was 4.52 µM. It also gave a TGI [17] of 18.3 µM, a GI50 [18] of 4.47 µM and a TGI [18] of 18.3 µM. The CC50 [18, 35] was 18.3 nM, the GI50 [19] was 4.43 µM and the TGI [19] was 18.3 µM. The GI50 [20] was 4.99 µM, the TGI [20] was 12.2 µM and the GI50 [21] was 4.89 µM. It also gave a TGI [21] of 18.3 µM, a GI50 [22] of 5.14 µM and a TGI [22] of 16.9 µM. The CC50 [22, 35] was 18.3 nM, the GI50 [23] was 4.61 µM and the TGI [23] was 11.3 µM. It also gave a GI50 [24] of 3.66 µM, a TGI [24] of 6.35 µM and a CC50 [24, 35] of 18.3 nM. For the same compound, the GI50 [25] was 3.77 µM, the TGI [25] was 6.1 µM and the GI50 [26] was 4.17 µM. It also gave a TGI [26] of 18.3 µM, a CC50 [26, 35] of 18.3 nM and a GI50 [27] of 2180 nM. The TGI [27] was 18.3 µM, the CC50 [27, 35] was 18.3 nM and the GI50 [28] was 3.62 µM. It also gave a TGI [28] of 6.22 µM, a GI50 [29] of 3.55 µM and a TGI [29] of 18.3 µM. The CC50 [29, 35] was 18.3 nM, the GI50 [30] was 4.56 µM and the TGI [30] was 6.61 µM. It also gave a GI50 [31] of 3.77 µM, a TGI [31] of 6.61 µM and a GI50 [32] of 6.16 µM. The TGI [32] was 15 µM, the CC50 [32, 35] was 18.3 nM and the GI50 [33] was 3.66 µM. It also gave a TGI [33] of 18.3 µM, a GI50 [34] of 6.22 µM and a TGI [34] of 18.3 µM.
